Data taken from patent US12077555B2, “STAT degraders and uses thereof” (Kymera Therapeutics, Inc., priority 2019, dated 2024).

Target: STAT3 (Homo sapiens, UniProt P40763)
Assay: STAT3 HiBiT degradation assay in transfected A549 cells
Format: cell-based
Design: expressed in transfected cells; host or cells: A549
Conditions: A549, 24 h; read-out: STAT3 HiBiT A549 degradation 24 h: Average external-Abs DC50
Method in brief: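 Transfected A549 cells (~2000/well) plated 24 h, then treated 24 h at 37 °C, 5% CO2 with a 3-fold, 10-point compound dilution. HiBiT lytic luminescence read after 10 min at room temperature; remaining STAT3 normalized to negative and positive controls, four-parameter fit. DC50 binned A <0.01, B 0.01–0.1, C 0.1–1.0, D >1.0 µM.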

Sequence of STAT3 (P40763 whole entry): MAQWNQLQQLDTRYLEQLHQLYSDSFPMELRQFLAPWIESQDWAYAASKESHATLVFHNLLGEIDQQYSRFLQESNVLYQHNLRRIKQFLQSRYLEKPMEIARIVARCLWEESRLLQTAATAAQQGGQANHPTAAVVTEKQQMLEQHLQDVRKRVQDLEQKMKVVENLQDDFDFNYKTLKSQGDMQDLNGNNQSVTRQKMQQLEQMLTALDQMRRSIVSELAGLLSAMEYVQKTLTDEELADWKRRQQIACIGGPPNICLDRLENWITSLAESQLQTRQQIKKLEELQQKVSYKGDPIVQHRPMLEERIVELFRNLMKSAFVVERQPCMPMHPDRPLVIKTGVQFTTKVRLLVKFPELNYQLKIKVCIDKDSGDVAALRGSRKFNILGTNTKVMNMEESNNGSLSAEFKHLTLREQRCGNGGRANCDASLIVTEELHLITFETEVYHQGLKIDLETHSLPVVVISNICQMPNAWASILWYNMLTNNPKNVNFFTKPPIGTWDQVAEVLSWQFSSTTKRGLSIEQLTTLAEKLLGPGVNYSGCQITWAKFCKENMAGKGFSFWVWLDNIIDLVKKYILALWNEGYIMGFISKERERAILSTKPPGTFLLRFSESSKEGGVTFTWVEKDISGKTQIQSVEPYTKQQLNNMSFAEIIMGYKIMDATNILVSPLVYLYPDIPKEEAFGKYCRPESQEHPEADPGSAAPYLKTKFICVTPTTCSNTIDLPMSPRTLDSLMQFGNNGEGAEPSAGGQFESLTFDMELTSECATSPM

SMILES	DC50
Cc1cc(CCCCCC(=O)N[C@H](C(=O)N2C[C@H](O)C[C@H]2C(=O)N[C@@H](C)c2ccc(-c3scnc3C)cc2)C(C)(C)C)cc(NC(=O)[C@H](CCC(N)=O)NC(=O)[C@@H]2Cc3cccc4c3N2C(=O)[C@@H](NC(=O)c2cc3cc(C(=O)P(=O)(O)O)ccc3[nH]2)CC4)c1 [Compound I-258, 2-[[(2S,11S)-2-[[(1S)-3-carbamoyl-1-[[3-(5-[[(2S)-1-[(2S,4R)-4-hydroxy-2-[[(1S)-1-[4-(4-methyl-1,3-thiazol-5-yl)phenyl]ethyl]carbamoyl]pyrrolidin-1-yl]-3,3-dimethyl-1-oxobutan-2-yl]carbamoyl]pentyl)-5-methylphenyl]carbamoyl]propyl]carbamoyl]-12-oxo-1-azatricyclo[6.4.1.0^[4,13]]trideca-4(13),5,7-trien-11-yl]carbamoyl]-1H-indole-5-carbonylphosphonic acid]	< 0.01 µM
Cc1ncsc1-c1ccc([C@H](C)NC(=O)[C@@H]2C[C@@H](O)CN2C(=O)[C@@H](NC(=O)CCCCCc2cccc(NC(=O)[C@H](CCC(N)=O)NC(=O)[C@@H]3Cc4cccc5c4N3C(=O)[C@@H](NC(=O)c3cc4cc(C(=O)P(=O)(O)O)ccc4[nH]3)CC5)c2C)C(C)(C)C)cc1 [Compound I-259]	0.1 to 1 µM
Cc1ncsc1-c1ccc([C@H](C)NC(=O)[C@@H]2C[C@@H](O)CN2C(=O)[C@@H](NC(=O)CCc2cccc(OC[C@H](CCC(N)=O)NC(=O)[C@@H]3Cc4cccc5c4N3C[C@@H](CC(=O)C3Cc4cc(C(=O)P(=O)(O)O)ccc4N3)CC5)c2)C(C)(C)C)cc1 (stereo partly drawn) [Compound I-260, diammonium 2-[[(2S,11S)-2-[[(2S)-4-carbamoyl-1-[3-(2-[[(2S)-1-[(2S,4R)-4-hydroxy-2-[[(1S)-1-[4-(4-methyl-1,3-thiazol-5-yl)phenyl]ethyl]carbamoyl]pyrrolidin-1-yl]-3,3-dimethyl-1-oxobutan-2-yl]carbamoyl]ethyl)phenoxy]butan-2-yl]carbamoyl]-12-oxo-1-azatricyclo[6.4.1.0^[4,13]]trideca-4(13),5,7-trien-11-yl]carbamoyl]-1H-indole-5-carbonylphosphonate]	> 1 µM
CC(=O)N1CC[C@H]2CC[C@@H](C(=O)N[C@@H](CCC(N)=O)COc3cccc(CCCCC(=O)N[C@H](C(=O)N4C[C@H](O)C[C@H]4C(=O)N[C@@H](C)c4ccc(-c5scnc5C)cc4)C(C)(C)C)c3F)N2C(=O)[C@@H](NC(=O)c2cc3cc(C(=O)P(=O)(O)O)ccc3[nH]2)C1 [Compound I-263, 2-[[(5S,8S,10aR)-3-acetyl-8-[[(2S)-4-carbamoyl-1-[2-fluoro-3-(4-[[(2S)-1-[(2S,4R)-4-hydroxy-2-[[(1S)-1-[4-(4-methyl-1,3-thiazol-5-yl)phenyl]ethyl]carbamoyl]pyrrolidin-1-yl]-3,3-dimethyl-1-oxobutan-2-yl]carbamoyl]butyl)phenoxy]butan-2-yl]carbamoyl]-6-oxo-octahydropyrrolo[1,2-a][1,5]diazocin-5-yl]carbamoyl]-1H-indole-5-carbonylphosphonic acid]	< 0.01 µM
Cc1ncsc1-c1ccc([C@H](C)NC(=O)[C@@H]2C[C@@H](O)CN2C(=O)[C@@H](NC(=O)CCCCCc2cc(F)cc(NC(=O)[C@H](CCC(N)=O)NC(=O)[C@@H]3Cc4cccc5c4N3C(=O)[C@@H](NC(=O)c3cc4cc(C(=O)P(=O)(O)O)ccc4[nH]3)CC5)c2)C(C)(C)C)cc1 [Compound I-264, 63 2-[[(2S,11S)-2-[[(1S)-3-carbamoyl-1-[[3-fluoro-5-(5-[[(2S)-1-[(2S,4R)-4-hydroxy-2-[[(1S)-1-[4-(4-methyl-1,3-thiazol-5-yl)phenyl]ethyl]carbamoyl]pyrrolidin-1-yl]-3,3-dimethyl-1-1-oxobutan-2-yl]carbamoyl]pentyl)phenyl]carbamoyl]propyl]carbamoyl]-12-oxo-1-azatricyclo[6.4.1.0^[4,13]]trideca-4(13),5,7-trien-11-yl]carbamoyl]-1H-indole-5-carbonylphosphonic acid 7]	0.01 to 0.1 µM
Cc1ncsc1-c1ccc([C@H](C)NC(=O)[C@@H]2C[C@@H](O)CN2C(=O)[C@@H](NC(=O)CCCCCc2cccc(NC[C@H](CCC(N)=O)NC(=O)[C@@H]3Cc4cccc5c4N3C(=O)[C@@H](NC(=O)c3cc4cc(C(=O)P(=O)(O)O)ccc4[nH]3)CC5)c2F)C(C)(C)C)cc1 [Compound I-265, diammonium 2-[[(2S,11S)-2-[(4-carbamoyl-1-[[2-fluoro-3-(5-[[(2S)-1-[(2S,4R)-4-hydroxy-2-[[(1S)-1-[4-(4-methyl-1,3-thiazol-5-yl)phenyl]ethyl]carbamoyl]pyrrolidin-1-yl]-3,3-dimethyl-1-oxobutan-2-yl]carbamoyl]pentyl)phenyl]amino]butan-2-yl)carbamoyl]-12-oxo-1-azatricyclo[6.4.1.0^[4,13]]trideca-4(13),5,7-trien-11-yl]carbamoyl]-1H-indole-5-carbonylphosphonate]	0.01 to 0.1 µM
Cc1cc(CCCCCC(=O)N[C@H](C(=O)N2C[C@H](O)C[C@H]2C(=O)N[C@@H](C)c2ccc(-c3scnc3C)cc2)C(C)(C)C)c(F)c(OC[C@H](CCC(N)=O)NC(=O)[C@@H]2Cc3cccc4c3N2C(=O)[C@@H](NC(=O)c2cc3cc(C(=O)P(=O)(O)O)ccc3[nH]2)CC4)c1 [Compound I-266, 2-[[(2S,11S)-2-[[(2S)-4-carbamoyl-1-[2-fluoro-3-(5-[[(2S)-1-[(2S,4R)-4-hydroxy-2-[[(1S)-1-[4-(4-methyl-1,3-thiazol-5-yl)phenyl]ethyl]carbamoyl]pyrrolidin-1-yl]-3,3-dimethyl-1-oxobutan-2-yl]carbamoyl]pentyl)-5-methylphenoxy]butan-2-yl]carbamoyl]-12-oxo-1-azatricyclo[6.4.1.[4,13]]trideca-4(13),5,7-trien-11-yl]carbamoyl]-1H-indole-5-carbonylphosphonic acid]	< 0.01 µM
Cc1ncsc1-c1ccc([C@H](C)NC(=O)[C@@H]2C[C@@H](O)CN2C(=O)[C@@H](NC(=O)CCCCCc2cc(F)cc(OC[C@H](CCC(N)=O)NC(=O)[C@@H]3Cc4cccc5c4N3C(=O)[C@@H](NC(=O)c3cc4cc(C(=O)P(=O)(O)O)ccc4[nH]3)CC5)c2F)C(C)(C)C)cc1 [Compound I-267]	< 0.01 µM
Cc1ncsc1-c1ccc([C@H](C)NC(=O)[C@@H]2C[C@@H](O)CN2C(=O)[C@@H](NC(=O)CCCCCc2ccnc([C@H](CCC(N)=O)NC(=O)[C@@H]3Cc4cccc5c4N3C(=O)[C@@H](NC(=O)c3cc4cc(C(=O)P(=O)(O)O)ccc4[nH]3)CC5)c2)C(C)(C)C)cc1 [Compound I-268, 2-[[(2S,11S)-2-[[(1S)-3-carbamoyl-1-[4-(5-[[(2S)-1-[(2S,4R)-4-hydroxy-2-[[(1S)-1-[4-(4-methyl-1,3-thiazol-5-yl)phenyl]ethyl]carbamoyl]pyrrolidin-1-yl]-3,3-dimethyl-1-oxobutan-2-yl]carbamoyl]pentyl)pyridin-2-yl]propyl]carbamoyl]-12-oxo-1-azatricyclo [6.4.1.0^[4,13]]trideca-4(13),5,7-trien-11-yl]carbamoyl]-1H-indole-5-carbonylphosphonic acid]	0.1 to 1 µM
